{"source": "paper PMC8577775", "about": "“Small molecule allosteric inhibitors of RORγt block Th17-dependent inflammation and associated gene expression in vivo” (PLoS ONE, 2021)", "key": {"[1]": {"tested_on": "KP/C pancreatic tumors in C57Bl/6 mice", "test": "In vivo tumor growth suppression, KP/C mouse model", "description": "Pancreatic tumor chunks from KP/C mice [20] on C57Bl/6 background were inoculated subcutaneously in the flank of syngeneic mice. […] Tumor volumes and body weight were measured twice each week.\nTo test whether inhibition of RORγt can lead to tumor growth inhibition we utilized the Kras^G12D/+/Trp53^null/Pdx1-cre (KP/C) mouse model of pancreatic cancer [20]. C57Bl/6 mice were inoculated in the flank with KP/C tumor chunks and enrolled in the study when the average tumor volume reached 200 mm^3. […] To evaluate target engagement, we examined changes in expression of a subset of potential RORγt target genes in tumor samples."}, "[2]": {"tested_on": "PDAC PDO model T020P", "test": "In vitro organoid growth assay (CellTiter-Glo 3D), T020P", "type": "cell-based, human", "details": "organoid growth assay, up to 30 μM", "experimental": "Patient derived organoids were established as previously described. Briefly, PDX tumor chunks were minced then enzymatically digested into single cells by using a tumor dissociation Kit (Miltenyi, Cat# 130-095-929). Mouse and human cells were separated through magnetic separation, and isolated tumor cells were cultured on Matrigel-coated dishes. […]\nOrganoids were isolated and dissociated as described above. Cell numbers were counted by trypan blue exclusion and 5000 cells per well were plated on the Matrigel coated and pre-warmed 96-well plates. […] 100 μl of CellTiter-Glo® 3D reagent (Promega cat# G9682) was added to each well after desired time points and luminescence signal measured after 30 minutes.\nSupplementary file pone.0248034.s010.tif: S6 Fig Schematic of Patient-derived organoids (PDO) growth & formation assays. […] After the indicated treatment schedule organoid growth or formation was assessed by CTG assay. […]"}, "[3]": {"tested_on": "RORγt target genes in KP/C tumor samples", "test": "RORγt target gene expression in KP/C tumors (qPCR)", "type": "in vivo, mouse", "experimental": "For RNA isolation & gene expression, ears are collected on day 4 in RNAlater (Qiagen) and stored at 4°C until processed. Ears were homogenized using Procellys 24 homogenizer & hard tissue homogenizing beads (Bertin Instruments), 2 cycles of 30 seconds @ 6000 rpm in RLT lysis buffer according to manufacturer’s instructions. RNA was isolated using RNAeasy Plus MiniPrep columns (Qiagen) and cDNA generated using SuperScript VILO cDNA Synthesis kit (Invitrogen). Gene expression was quantified using TaqMan Fast Master Mix & and TaqMan FAM-MGB probe sets (Applied Biosystems): Gapdh, Mm99999915_g1, Il17a, Mm00439618_m1, Il17f, Mm00521423_m1, Il22, Mm01226722_g1 & Bclxl, Mm00437783_m1. QPCR reactions were run on QuantStudio 7 instrument. Relative quantification and fold changes were calculated using ddCT values against Gapdh and normalized to control-treated animals. For PDAC xenografts, RNA was isolated from tumor sections using Qiagen RNeasy kit (cat#74106), then cDNA was prepared using 2 μg of RNA and the high capacity RNA to cDNA kit (Applied Biosystems, cat#4387406) as per manufacturer’s instructions. Biomarker expression was determined using Taqman gene expression probes (S1 Table) and Universal master mix (ThermoFisher Scientific cat#4305719) with expression levels normalized to Gapdh. […]"}, "[4]": {"tested_on": "IMQ-induced skin inflammation in Balb/c mice", "test": "Imiquimod (IMQ)-induced skin inflammation model", "type": "in vivo, mouse", "details": "day 4; for ear thickness: control-treated 0.17 ± 0.002 mm", "experimental": "For IMQ-induced skin inflammation, wild-type (WT) Balb/c female mice, 5–8 weeks of age, were purchased from Charles River Laboratories. All mice were housed in pathogen-free conditions at Bristol Myers Squibb (Cambridge, MA). Aldara cream containing 5% imiquimod (Patterson Veterinary Supply, Inc; Devens, MA) was applied to the ears daily (11–14 mg) for 3 days. Mice were treated twice daily (BID) on days 1–4 per os (PO) with vehicle (0.5% methylcellulose/0.25% Tween80) or RORγt inhibitors at indicated doses immediately prior to Aldara application. Ear thickness was measured using micro-calipers. Tissues were harvested on day 4, 2 hours following the last compound dose. Naïve mice are completely untreated, receiving neither control vehicle for IMQ nor Compound.\nFor RNA isolation & gene expression, ears are collected on day 4 in RNAlater (Qiagen) and stored at 4°C until processed. Ears were homogenized using Procellys 24 homogenizer & hard tissue homogenizing beads (Bertin Instruments), 2 cycles of 30 seconds @ 6000 rpm in RLT lysis buffer according to manufacturer’s instructions. RNA was isolated using RNAeasy Plus MiniPrep columns (Qiagen) and cDNA generated using SuperScript VILO cDNA Synthesis kit (Invitrogen). Gene expression was quantified using TaqMan Fast Master Mix & and TaqMan FAM-MGB probe sets (Applied Biosystems): Gapdh, Mm99999915_g1, Il17a, Mm00439618_m1, Il17f, Mm00521423_m1, Il22, Mm01226722_g1 & Bclxl, Mm00437783_m1. QPCR reactions were run on QuantStudio 7 instrument. Relative quantification and fold changes were calculated using ddCT values against Gapdh and normalized to control-treated animals. For PDAC xenografts, RNA was isolated from tumor sections using Qiagen RNeasy kit (cat#74106), then cDNA was prepared using 2 μg of RNA and the high capacity RNA to cDNA kit (Applied Biosystems, cat#4387406) as per manufacturer’s instructions. Biomarker expression was determined using Taqman gene expression probes (S1 Table) and Universal master mix (ThermoFisher Scientific cat#4305719) with expression levels normalized to Gapdh.\nFor cytokine production, ears are removed, split in half using forceps and floated, dermis side-down, in DMEM media (Gibco) and incubated at 37° C for 24 hours. Following incubation, media was removed and cytokine production assessed by Luminex assay (Bio-Rad Laboratories)."}, "[5]": {"tested_on": "RORγt-dependent inflammation", "test": "RORγt/Th17-dependent inflammation in vivo, overall statement (acute and chronic settings)", "details": "with IC50 coverage alone (same level of response)"}}, "data": [{"smiles": "O=C(O)[C@@H]1CCC(c2nn(C(=O)c3c(Cl)cccc3C(F)(F)F)c3cccc(F)c23)=C[C@H]1O", "note": "[Compound 3]", "values": [{"measurement": "tumor volume, combination with gemcitabine", "setting": "[1]; Compound 3 30mg/kg BID plus gemcitabine vs gemcitabine", "result": "no additional benefit"}, {"measurement": "tumor volume", "setting": "[1]; single agent vs vehicle, 28 days of dosing", "result": "not statistically significant"}, {"measurement": "viability of T020P PDOs", "setting": "[2]", "result": "did not decrease viability"}, {"measurement": "Klf7 and Osmr expression in tumors", "setting": "[3]; all treatment groups (alone or with gemcitabine)", "result": "decreased in all treatment groups"}, {"measurement": "Msi2 expression in tumors", "setting": "[3]; combination of Compound 3 and gemcitabine", "result": "significant decrease"}, {"measurement": "ear thickness", "setting": "[4]; 25 mg/kg PO", "result": "0.163 ± 0.002", "unit": "mm"}, {"measurement": "ear thickness", "setting": "[4]; 50 mg/kg PO", "result": "0.156 ± 0.001", "unit": "mm"}, {"measurement": "ear thickness", "setting": "[4]; 100 mg/kg PO", "result": "0.143 ± 0.002", "unit": "mm"}, {"measurement": "Th17-cytokine gene expression in ear skin", "setting": "[4]; 50 and 100 mg/kg dosed groups", "result": "reduced"}, {"measurement": "Bclxl expression in skin tissues", "setting": "[4]; oral administration, IMQ model", "result": "significantly reduced"}, {"measurement": "inhibition of Th17-dependent responses", "setting": "[5]", "result": "~ 45%"}]}]}
